Measured values taken from patent publication US10111877B2, “Modulators of androgen synthesis” (Tangent Reprofiling Limited, priority 2012, dated 2018).
Read-outs that look alike come from different tables or passages of the source.

Experiments:
PC3 cells [1] = assay: Cell metabolism inhibition assay (Cell titre Blue) with fatty acids; format: cell-based; conditions: for Cellular Metabolic Activity: 100% = undrugged media
Protocol: A cell metabolism inhibition assay was performed to determine the effect of different fatty acids on cellular metabolic rate. The fatty acids tested were α-Linolenic acid, omega 3 fatty acid (ALA), Arachidonic acid, omega 6 fatty acid (AA), 9Z, 11E conjugated Linoleic acid, omega 7 fatty acid (CLA), Docosahexaenoic acid, omega 3 fatty acid (DHA), Eicosapentaenoic acid, omega 3 fatty acid (EPA), Oleic acid, omega 9 fatty acid (OA), Ricinoleic acid, omega 9 hydroxylated fatty acid (RA).
PC3 cells are from a cell line derived from a hormone refractory prostate cancer and are known to overexpress HSD10. PC3 cells were seeded at a density of 4,000 cells per well in a 96 well plate, and incubated at 37° C., 5% CO2 for 48 hours in standard growth media (F12K nutrient media, 7% Fetal Calf Serum, 2 mM L-Glutamine, 45 mg/L ascorbic acid). The media was then removed by pipette and replaced with the appropriate drug treatment as follows: 20 μM, or 40 μM, or 60 μM, or 80 μM, or 100 μM ALA in PC3 treatment media (F12K nutrient media, 125 uM fatty acid free BSA, 2 mM L-Glutamine, 45 mg/L ascorbic acid); 20 μM, or 40 μM, or 60 μM, or 80 μM, or 100 μM AA in PC3 treatment media; 20 μM, or 40 μM, or 60 μM, or 80 μM, or 100 μM CLA in PC3 treatment media; 20 μM, or 40 μM, or 60 μM, or 80 μM, or 100 μM DHA in PC3 treatment media; 20 μM, or 40 μM, or 60 μM, or 80 μM, or 100 μM EPA in PC3 treatment media; 20 μM, or 40 μM, or 60 μM, or 80 μM, or 100 μM OA in PC3 treatment media; and 20 μM, or 40 μM, or 60 μM, or 80 μM, or 100 μM RA in PC3 treatment media. After incubation in the drug treatment for 72 hours at 37° C., 5% CO2, 50 μL Cell titre Blue Assay Reagent was added to each well and the plate return to incubation at 37° C., 5% CO2, for a further 24 hours, at which time the absorbance at 620 nm was recorded. The reduction of absorbance at 620 nm represents a higher metabolic rate, and the data below has been normalized such that 100% represents cells that have been grown in the presence of undrugged media, and 0% represents wells containing no cells.

HSD10 = target: T1, HSD10 (Homo sapiens, UniProt Q99714); assay: HSD10 Enzyme Inhibition Assay; format: biochemical; conditions: 50 μM drug
T1 construct: endogenous in cells; host or cells: PC3 cells
T1 sequence (Q99714 1-261): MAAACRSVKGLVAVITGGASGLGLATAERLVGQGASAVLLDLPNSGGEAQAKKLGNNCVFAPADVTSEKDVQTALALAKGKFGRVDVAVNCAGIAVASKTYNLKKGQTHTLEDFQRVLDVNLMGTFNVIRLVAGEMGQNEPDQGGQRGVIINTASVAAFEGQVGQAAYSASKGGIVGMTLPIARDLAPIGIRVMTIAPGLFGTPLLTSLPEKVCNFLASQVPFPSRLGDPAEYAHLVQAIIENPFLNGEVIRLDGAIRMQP
Protocol: An HSD10 inhibition assay was performed to determine the effect of several anti-psychotics on enzyme activity.
(§1) PC3 cells are from a cell line derived from a hormone refractory prostate cancer and are known to overexpress HSD10. […] Cells line tests were carried out in presence and absence of testosterone for comparison. After incubation in the drug treatment for 96 hours at 37° C., 5% CO2, the supernatant was removed from all wells of cells, and cells washed with 200 μL PBS.
(§2) After removal of the PBS, cell number was determined using a lysed cell LDH assay (CytoTox 96 Non-radioactive cytotoxicity assay (LDH Assay); Promega, Co., Madison Wis.). Cells were lysed with 0.9% Triton-X in PBS for 2 hours at 37° C., 5% CO2 and 50 μL of this cell lysate was transferred to a fresh 96 well plate. About 50 μL of CytoTox 96 assay reagent was added to the transferred cell lysate and this mixture was incubated at room temperature in the dark for 20 minutes. After the addition of 50 μL stop reagent, the optical absorbance was determined for each incubated mixture at 492 nm. […] The mean and standard error was calculated from at least 3 wells.

PC3 cells [2] = assay: Cell growth inhibition, lysed cell LDH assay, prostate cancer cell line; format: cell-based; conditions: 96 hours, 100% = no drug treatment (Table 3);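 also: 100% is cells receiving no drug treatment and 0% is wells without cells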
Protocol: To determine whether Risperidone could be effective in inhibiting growth of cancer cells overexpressing HSD10, a lysed cell LDH assay was conducted using cells from a PC3 cell line.
as §1, §2
To determine the optimal concentration of Risperidone and CLA necessary to inhibit cell growth, a lysed cell LDH assay was conducted using various concentration of Risperidone and CLA. PC3 cells were cultured and a lysed cell LDH assay was conducted as described above, except that the various drug treatments evaluated contained either 0 μM, 12.5 μM, 25 μM, or 50 μM Risperidone in combination with 0 μM, 6.25 μM, 12.5 μM, 25 μM, 50 μM, or 100 μM CLA (see Table 3).
as §2, with “PBS from the cell cultures described above,” for “PBS,”, “assay.” for “assay (CytoTox 96 Non-radioactive cytotoxicity assay (LDH Assay); Promega, Co., Madison Wis.).”

PC-3M-luc cells = assay: Orthotopic prostate tumor mouse xenograft model; conditions: single drug
Protocol: Immunodeficeint male mice (athymic nude mice) were acclimated to the laboratory for at least one week prior to implantation of tumor. PC-3M-luc cells obtained directly from in vitro culture were then injected into the prostate on Day 0. Animals were divided into six groups of 12 mice each. Primary tumor size and metastases were assessed by bioluminescence measurements on day 6, 13, 20, 27, 34, and 40. On day 7 a five week treatment regime was initiated. Both individual drug and high and low dose combination were examined by administering the drugs twice daily on an individual body weight basis using a dose escalation protocol (Table 7). If tumors grew above a pre-determined level, or mice lost more than 10% of bodyweight, they were culled. The primary tumor was excised, weighed and measured. Individual organs were imaged to assess metastatic burden.

[3] = read-out: Oxidative Activity Drug Inhibition
[4] = read-out: Reductive Activity Drug Inhibition

Structure (SMILES) | Cellular Metabolic Activity (PC3 cells [1]; 20 μM fatty acid) | Cellular Metabolic Activity (PC3 cells [1]; 40 μM fatty acid) | Cellular Metabolic Activity (PC3 cells [1]; 60 μM fatty acid) | Cellular Metabolic Activity (PC3 cells [1]; 80 μM fatty acid) | Cellular Metabolic Activity (PC3 cells [1]; 100 μM fatty acid) | inhibition at 50 µM (HSD10; [3]) | inhibition at 50 µM (HSD10; [4]) | other results
CCCCC/C=C\C/C=C\C/C=C\C/C=C\CCCC(=O)O [AA, Arachidonic acid] | 107 ± 3.9% | 90 ± 5.6% | 78 ± 6.4% | 66 ± 7.2% | 60 ± 5.9% |  |  | 
CC/C=C\C/C=C\C/C=C\CCCCCCCC(=O)O [ALA, α-Linolenic acid] | 118 ± 0.5% | 118 ± 0.9% | 118 ± 0.2% | 117 ± 0.9% | 114 ± 1.2% |  |  | 
CN(C)CCCN1c2ccccc2Sc2ccc(Cl)cc21 [Chlorpromazine] |  |  |  |  |  | 8% | 18% | Oxidative Activity Rate (HSD10): 7.7 µM/min; Reductive Activity Rate (HSD10): 7.2 µM/min
CN(C)CCCN1c2ccccc2CCc2ccc(Cl)cc21 [Clomipramine] |  |  |  |  |  | 73% | 15% | Oxidative Activity Rate (HSD10): 2.3 µM/min; Reductive Activity Rate (HSD10): 7.5 µM/min
CN1CCN(C2=Nc3cc(Cl)ccc3Nc3ccccc32)CC1 [Clozapine] |  |  |  |  |  | 43% | 15% | 
CC/C=C\C/C=C\C/C=C\C/C=C\C/C=C\C/C=C\CCC(=O)O [DHA, Docosahexaenoic acid] | 90 ± 8.2% | 74 ± 7.6% | 58 ± 5.9% | 49 ± 7.7% | 34 ± 7.0% |  |  | metabolic inhibition (PC3 cells [1]; 60-100 μM range): 40-65%; Percentage of Lysed Cells (PC3 cells [2]; 12.5 μM of each drug): 109 ± 1.1%; Percentage of Lysed Cells (PC3 cells [2]; 25 μM of each drug): 102 ± 3.5%; Percentage of Lysed Cells (PC3 cells [2]; 50 μM of each drug): 95 ± 3.8%
CN(C)CCOC(c1ccccc1)c1ccccc1 [Diphenhydramine] |  |  |  |  |  | 5% | 6% | Oxidative Activity Rate (HSD10): 8.0 µM/min; Reductive Activity Rate (HSD10): 8.3 µM/min
CC(=O)O[C@@]12CO[C@@H]1C[C@H](O)[C@@]1(C)C(=O)[C@H](O)C3=C(C)[C@@H](OC(=O)[C@H](O)[C@@H](NC(=O)OC(C)(C)C)c4ccccc4)C[C@@](O)([C@@H](OC(=O)c4ccccc4)[C@H]21)C3(C)C [Docetaxel] |  |  |  |  |  |  |  | body weight throughout the study (PC-3M-luc cells; by Day 40): on a trend of losing weight; Tumor Growth Inhibition (PC-3M-luc cells; calculated on Day 34, dosing per Table 7): 94%; Animal Survival (overall survivorship) (PC-3M-luc cells; day 40, dosing per Table 7): 100%
CC/C=C\C/C=C\C/C=C\C/C=C\C/C=C\CCCC(=O)O [EPA, Eicosapentaenoic acid] | 94 ± 9.4% | 71 ± 8.2% | 67 ± 7.4% | 49 ± 7.4% | 37 ± 5.9% |  |  | metabolic inhibition (PC3 cells [1]; 80-100 μM range): 50-65%
CCCCCCCC/C=C\CCCCCCCC(=O)O [OA, Oleic acid] | 109 ± 2.7% | 108 ± 0.9% | 111 ± 2.2% | 110 ± 2.2% | 111 ± 2.0% |  |  | 
CCCCCC[C@@H](O)C/C=C\CCCCCCCC(=O)O [RA, Ricinoleic acid] | 91 ± 6.0% | 94 ± 4.7% | 90 ± 6.2% | 90 ± 6.0% | 94 ± 3.1% |  |  | 
